How the values were obtained:
MYD88 = target: T1, MYD88 (Homo sapiens, UniProt Q99836); test: isoTOP-ABPP and TMT-ABPP cysteine engagement, MYD88; assay type: binding
T1 construct: endogenous in cells
Protocol: Activated or expanded T cells were re-suspended in RPMI media supplemented with 10% FBS, L-glutamine (2 mM), penicillin (100 U/mL), and streptomycin (100 μg/mL) at 2×10^6 cells/mL. The compounds were added to cells as 1000×DMSO stocks and mixed well with the media by pipetting up and down after addition. The cells were kept at 37° C. in 5% CO2 containing incubators for 3 h (or otherwise specified times), then pelleted by centrifugation (524 g, 5 min, 4° C.), washed with cold PBS (10 mL) and transferred to Eppendorf tubes (1 mL PBS). The cells were pelleted again (524 g, 5 min, 4° C.), flash-frozen, and kept at −80° C. until further analysis.
Activated or expanded primary human T cells were re-suspended in RPMI (1×10^6 cells/mL) containing 10% fetal bovine serum (FBS), penicillin (100 U/mL), streptomycin ([…]), and L-glutamine (2 mM). The cells were treated with DMSO or compounds for 3 h, pelleted (524 g, 5 min), washed with PBS, and lysed by sonication (2×8 pulses). Soluble and particulate proteomic fractions were separated by ultracentrifugation (100,000 g, 45 min), and protein concentration was normalized to 1.7 mg/mL using a standard DC protein assay (Bio-Rad). The resulting proteomes were analyzed by competitive isotopic Tandem Orthogonal Proteolysis Activity-Based Protein Profiling (isoTOP-ABPP). […]
The heavy/light isoTOP-ABPP ratios (R values) for each unique peptide (DMSO/compound treated) were quantified with in-house CIMAGE software (Weerapana et al., 2010) using default parameters (3 MS1 acquisitions per peak and signal to noise threshold set to 2.5). Site-specific engagement of cysteine residues was assessed by blockade of IA-alkyne probe labeling. […] Ratios for unique peptide sequences were calculated for each experiment; overlapping peptides with the same modified cysteine (e.g., different charge states, elution times or tryptic termini) were grouped together and the median ratio was reported as the final ratio (R). […]

BIRC3 = target: T2, BIRC3 (Homo sapiens, UniProt Q13489, C28A); test: Western blot of BIRC3 content in human T cells; assay type: cell-based; details: EV-3 10 μM, 24 h; transfected primary human T cells
T2 construct: endogenous in cells; host or cells: primary human T cells
T2 sequence (Q13489 whole entry C28A): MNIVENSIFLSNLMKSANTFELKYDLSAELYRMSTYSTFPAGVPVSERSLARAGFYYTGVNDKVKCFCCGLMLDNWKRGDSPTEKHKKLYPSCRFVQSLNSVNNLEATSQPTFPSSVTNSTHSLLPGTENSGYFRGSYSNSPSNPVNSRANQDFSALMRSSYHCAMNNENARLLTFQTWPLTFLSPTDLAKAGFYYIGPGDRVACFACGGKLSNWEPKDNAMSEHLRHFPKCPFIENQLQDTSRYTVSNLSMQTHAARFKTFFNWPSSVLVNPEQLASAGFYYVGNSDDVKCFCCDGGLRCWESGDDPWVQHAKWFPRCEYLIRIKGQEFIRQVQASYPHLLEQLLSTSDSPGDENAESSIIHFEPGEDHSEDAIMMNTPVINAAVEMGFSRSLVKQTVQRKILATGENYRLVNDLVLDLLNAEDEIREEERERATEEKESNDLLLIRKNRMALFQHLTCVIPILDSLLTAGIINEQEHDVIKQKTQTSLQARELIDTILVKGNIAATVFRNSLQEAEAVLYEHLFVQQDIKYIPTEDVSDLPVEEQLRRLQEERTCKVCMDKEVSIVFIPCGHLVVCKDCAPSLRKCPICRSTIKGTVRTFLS

T1 sequence (Q99836 whole entry): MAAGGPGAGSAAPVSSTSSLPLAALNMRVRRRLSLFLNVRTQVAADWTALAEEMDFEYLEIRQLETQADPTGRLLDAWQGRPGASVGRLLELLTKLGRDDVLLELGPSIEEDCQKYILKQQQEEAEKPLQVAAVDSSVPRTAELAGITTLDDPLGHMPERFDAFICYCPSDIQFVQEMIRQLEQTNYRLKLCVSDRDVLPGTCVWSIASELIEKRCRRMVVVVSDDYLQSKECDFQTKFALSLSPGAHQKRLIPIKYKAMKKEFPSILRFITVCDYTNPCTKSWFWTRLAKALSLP

`C=CC(=O)N(Cc1cccc(Cl)n1)c1ccc(C(=O)Nc2ccccc2)nc1` [BPK-25] was tested. Which “labeling of C203 of MYD88” value (MYD88) did it give?
The value was “direct labeling of C203”.

For `O=C(CCl)N1CCN(S(=O)(=O)c2ccc(-c3ccncc3)cc2)CC1` [EV-3], which “FLAG-tagged BIRC3 C28A mutant content” value (BIRC3) is on record?
Its value is “but not cysteine mutants”.
